Results reported in patent publication US20090246302A1, “COMPOSITION AND METHOD FOR PROTECTING AGRICULTURAL CROPS AND/OR AGRICULTURAL PRODUCTS” (priority 2008, published 2009).
Where two headings read alike, the source gives them in different places.

Tests used:
Format in all cases: in vivo
S. oryzae [1] = conditions: field evaluation, dosage of 25 mg/25 Kg
C. cephalonica larvae [2] = conditions: field evaluation, dosage of 25 mg/25 Kg
C. chinensis adult [3] = conditions: field evaluation, dosage of 25 mg/25 Kg
T. granarium adult [4] = experiment: whole plant or invertebrate; conditions: Trogoderma granarium, read-out: Mean (%) mortality of insects, laboratory trials; for mortality at 750 mg/kg: dosage of 750 mg/kg; for mortality at 1000 mg/kg: dosage of 1 g/kg
Method: (§1) The composition for protecting agricultural products was prepared. A new method was employed using rice bran, as carrier material. 500 g of clean and uncontaminated rice bran collected from the rice mills was completely dehydrated by sun drying. 25 g of the botanical extract of the P. betel in 125 ml of acetone was sprayed uniformly on to the rice bran. Mixed manually and allowed to shade dry for about 20 min.

C. chinensis adult [5] = experiment: whole plant or invertebrate; conditions: Callosobruchus chinensis, read-out: Mean (%) mortality of insects, laboratory trials; for mortality at 750 mg/kg: dosage of 750 mg/kg; for mortality at 1000 mg/kg: dosage of 1 g/kg
Method: as §1

S. oryzae [6] = experiment: whole plant or invertebrate; conditions: Sitophilus oryzae, laboratory trials, read-out: Mean (%) mortality of insects; for mortality at 750 mg/kg: dosage of 750 mg/kg; for mortality at 1000 mg/kg: dosage of 1 g/kg
Method: as §1

C. cephalonica larvae [7] = experiment: whole plant or invertebrate; conditions: Corcyra cephalonica, read-out: Mean (%) mortality of insects, laboratory trials; for mortality at 750 mg/kg: dosage of 750 mg/kg; for mortality at 1000 mg/kg: dosage of 1 g/kg
Method: as §1

T. granarium adult [8] = conditions: field evaluation, dosage of 25 mg/25 Kg

SMILES: C=CCc1ccc(O)c(OC)c1 [Eugenol, 4-Allyl-2-methoxyphenol]
- Mean (%) mortality of insects (S. oryzae [1]; 1st week): 100%
- Mean (%) mortality of insects (S. oryzae [1]; 2nd week): 100%
- Mean (%) mortality of insects (S. oryzae [1]; 3rd week): 85%
- Mean (%) mortality of insects (S. oryzae [1]; 4th week): 50%
- Mean (%) mortality of insects (S. oryzae [1]; 6th week): 0%
- Mean (%) mortality of insects (S. oryzae [1]; 7th week): 0%
- Mean (%) mortality of insects (C. cephalonica larvae [2]; 1st week): 100%
- Mean (%) mortality of insects (C. cephalonica larvae [2]; 2nd week): 100%
- Mean (%) mortality of insects (C. cephalonica larvae [2]; 3rd week): 89%
- Mean (%) mortality of insects (C. cephalonica larvae [2]; 4th week): 66%
- Mean (%) mortality of insects (C. cephalonica larvae [2]; 5th week): 23%
- Mean (%) mortality of insects (C. cephalonica larvae [2]; 6th week): 0%
- Mean (%) mortality of insects (C. cephalonica larvae [2]; 7th week): 0%
- Mean (%) mortality of insects (C. chinensis adult [3]; 1st week): 100%
- Mean (%) mortality of insects (C. chinensis adult [3]; 2nd week): 100%
- Mean (%) mortality of insects (C. chinensis adult [3]; 3rd week): 100%
- Mean (%) mortality of insects (C. chinensis adult [3]; 4th week): 53%
- Mean (%) mortality of insects (C. chinensis adult [3]; 5th week): 39%
- Mean (%) mortality of insects (C. chinensis adult [3]; 6th week): 12.4%
- Mean (%) mortality of insects (C. chinensis adult [3]; 7th week): 0%
- mortality at 750 mg/kg (T. granarium adult [4]; 1st week): 100%
- mortality at 750 mg/kg (T. granarium adult [4]; 2nd week): 100%
- mortality at 750 mg/kg (T. granarium adult [4]; 3rd week): 26%
- mortality at 750 mg/kg (T. granarium adult [4]; 4th week): 13.3%
- mortality at 750 mg/kg (T. granarium adult [4]; 5th week): 0%
- mortality at 750 mg/kg (T. granarium adult [4]; 6th week): 0%
- mortality at 1000 mg/kg (T. granarium adult [4]; 1st week): 100%
- mortality at 1000 mg/kg (T. granarium adult [4]; 2nd week): 100%
- mortality at 1000 mg/kg (T. granarium adult [4]; 3rd week): 40%
- mortality at 1000 mg/kg (T. granarium adult [4]; 4th week): 23%
- mortality at 1000 mg/kg (T. granarium adult [4]; 5th week): 0%
- mortality at 1000 mg/kg (T. granarium adult [4]; 6th week): 0%
- mortality at 750 mg/kg (C. chinensis adult [5]; 1st week): 100%
- mortality at 750 mg/kg (C. chinensis adult [5]; 2nd week): 100%
- mortality at 750 mg/kg (C. chinensis adult [5]; 3rd week): 58.4%
- mortality at 750 mg/kg (C. chinensis adult [5]; 4th week): 20%
- mortality at 750 mg/kg (C. chinensis adult [5]; 5th week): 0%
- mortality at 750 mg/kg (C. chinensis adult [5]; 6th week): 0%
- mortality at 1000 mg/kg (C. chinensis adult [5]; 1st week): 100%
- mortality at 1000 mg/kg (C. chinensis adult [5]; 2nd week): 100%
- mortality at 1000 mg/kg (C. chinensis adult [5]; 3rd week): 63%
- mortality at 1000 mg/kg (C. chinensis adult [5]; 4th week): 35%
- mortality at 1000 mg/kg (C. chinensis adult [5]; 5th week): 20%
- mortality at 1000 mg/kg (C. chinensis adult [5]; 6th week): 0%
- mortality at 750 mg/kg (S. oryzae [6]; 1st week): 100%
- mortality at 750 mg/kg (S. oryzae [6]; 2nd week): 100%
- mortality at 750 mg/kg (S. oryzae [6]; 3rd week): 40%
- mortality at 750 mg/kg (S. oryzae [6]; 4th week): 20%
- mortality at 750 mg/kg (S. oryzae [6]; 5th week): 0%
- mortality at 750 mg/kg (S. oryzae [6]; 6th week): 0%
- mortality at 1000 mg/kg (S. oryzae [6]; 1st week): 100%
- mortality at 1000 mg/kg (S. oryzae [6]; 2nd week): 100%
- mortality at 1000 mg/kg (S. oryzae [6]; 3rd week): 40%
- mortality at 1000 mg/kg (S. oryzae [6]; 4th week): 35%
- mortality at 1000 mg/kg (S. oryzae [6]; 5th week): 25%
- mortality at 1000 mg/kg (S. oryzae [6]; 6th week): 0%
- mortality at 750 mg/kg (C. cephalonica larvae [7]; 1st week): 100%
- mortality at 750 mg/kg (C. cephalonica larvae [7]; 2nd week): 100%
- mortality at 750 mg/kg (C. cephalonica larvae [7]; 3rd week): 53.3%
- mortality at 750 mg/kg (C. cephalonica larvae [7]; 4th week): 13.3%
- mortality at 750 mg/kg (C. cephalonica larvae [7]; 5th week): 0%
- mortality at 750 mg/kg (C. cephalonica larvae [7]; 6th week): 0%
- mortality at 1000 mg/kg (C. cephalonica larvae [7]; 1st week): 100%
- mortality at 1000 mg/kg (C. cephalonica larvae [7]; 2nd week): 100%
- mortality at 1000 mg/kg (C. cephalonica larvae [7]; 3rd week): 74%
- mortality at 1000 mg/kg (C. cephalonica larvae [7]; 4th week): 29%
- mortality at 1000 mg/kg (C. cephalonica larvae [7]; 5th week): 13.3%
- mortality at 1000 mg/kg (C. cephalonica larvae [7]; 6th week): 0%
- Mean (%) mortality of insects (T. granarium adult [8]; 1st week): 100%
- Mean (%) mortality of insects (T. granarium adult [8]; 2nd week): 100%
- Mean (%) mortality of insects (T. granarium adult [8]; 3rd week): 72%
- Mean (%) mortality of insects (T. granarium adult [8]; 4th week): 42%
- Mean (%) mortality of insects (T. granarium adult [8]; 5th week): 20%
- Mean (%) mortality of insects (T. granarium adult [8]; 6th week): 0%
- Mean (%) mortality of insects (T. granarium adult [8]; 7th week): 0%
